Laboratory results from article PMC9130746, “In Vitro Activity of Peptide Antibiotics in Combination With Other Antimicrobials on Extensively Drug-Resistant Acinetobacter baumannii in the Planktonic and Biofilm Cell” (Frontiers in Pharmacology, 2022).
Converted amounts (≈) assume the structure as drawn. Read-outs that look alike come from different tables or passages of the source. Bridge positions count the residues as written; N and C are the ends. Square brackets hold non-standard residues; d marks the D form. Peptide text beside a SMILES is read from it. * marks the point of attachment. Ileψ(thiazoline)Cys = CC[C@H](C)[C@H](N)C1=N[C@H](C(=O)*)CS1; dOrn = NCCC[C@@H](N)C(=O)O; X1 = CC[C@H](C)CCCCC(=O)*; Dab = NCC[C@H](N)C(=O)O

Key:
[1] = tested on: extensively drug-resistant A. baumannii clinical isolates (planktonic cell); experiment: microbe, parasite or virus in culture; type: cell-based, Acinetobacter baumannii
Text: (§1) Nine XDRAB strains were isolated from clinical specimens such as the septum, urine, or respiratory lavage fluid of patients from the respiratory intensive care unit, intensive care unit, the cardiothoracic surgery department, and the neurology department at the First Affiliated Hospital of Chengdu Medical College during the period from 2018 to 2020 (Chengdu, Sichuan, China). In addition, A. baumannii ATCC 19606, Staphylococcus aureus ATCC 29213, and Escherichia coli ATCC 25922 were used as quality control strains in antimicrobial susceptibility testing (AST) and obtained from the American Type Culture Collection (ATCC, Manassas, VA, United States).
The minimum inhibitory concentrations (MICs) were determined by the broth microdilution method for the antibacterial agents and peptide antibiotics for A. baumannii based on the guidelines provided by the Clinical and Laboratory Standards Institute (CLSI) ([Humphries et al., 2021]). Briefly, bacterial cells were inoculated in Luria–Bertani agar medium at 37°C for 16–20 h, and then resuspended in saline (0.9% sodium chloride) to adjust the bacterial content to reach the 0.5 McFarland turbidity standard, followed by a 20-fold dilution. Antimicrobial solutions were prepared according to the CLSI ([Humphries et al., 2021]). Finally, 180 μl CAMHB, 10 µl corresponding antimicrobials, and 10 µl bacterial resuspension were added into 96-well plate (NEST TC, 701001, www.cell-nest.com). The value of OD600 was measured after incubating at 37°C for 16–20 h.

[2] = tested on: extensively drug-resistant A. baumannii clinical isolates (biofilm cell); type: cell-based, Acinetobacter baumannii
Text: as §1
The minimum biofilm inhibitory concentrations (MBICs) were detected using a previous study protocol ([Kart et al., 2021]) for the antibacterial agents and peptide antibiotics for A. baumannii in the biofilm cell. First, bacterial cells were inoculated in Luria–Bertani agar medium at 37°C for 16–20 h. Next, the bacterial monoclones were resuspended in saline (0.9% sodium chloride) to adjust the bacterial content to reach the 0.5 McFarland turbidity standard. Then, 190 µl TSB and 10 µl bacterial resuspension were mixed in a 96-well plate. After incubating at 37°C for 24 h, the medium was aspirated, and 200 µl PBS was added to wash three times. Finally, 190 μl MH broth medium and 10 µl corresponding antibiotics were added into 96-well plate (NEST TC, 701001, www.cell-nest.com). The optical density was measured at OD600 after incubating for 16–20 h at 37°C.

[3] = isolate AB1, planktonic, broth microdilution, CAMHB, 37°C 16–20 h, OD600
[4] = isolate AB2, planktonic, broth microdilution, CAMHB, 37°C 16–20 h, OD600
[5] = isolate AB3, planktonic, broth microdilution, CAMHB, 37°C 16–20 h, OD600
[6] = isolate AB4, planktonic, broth microdilution, CAMHB, 37°C 16–20 h, OD600
[7] = isolate AB5, planktonic, broth microdilution, CAMHB, 37°C 16–20 h, OD600
[8] = isolate AB6, planktonic, broth microdilution, CAMHB, 37°C 16–20 h, OD600
[9] = isolate AB7, planktonic, broth microdilution, CAMHB, 37°C 16–20 h, OD600
[10] = isolate AB8, planktonic, broth microdilution, CAMHB, 37°C 16–20 h, OD600
[11] = isolate AB9, planktonic, broth microdilution, CAMHB, 37°C 16–20 h, OD600
[12] = isolate AB1, 24 h biofilm in TSB, then MH broth with drug 16–20 h 37°C, OD600
[13] = isolate AB2, 24 h biofilm in TSB, then MH broth with drug 16–20 h 37°C, OD600
[14] = isolate AB3, 24 h biofilm in TSB, then MH broth with drug 16–20 h 37°C, OD600
[15] = isolate AB4, 24 h biofilm in TSB, then MH broth with drug 16–20 h 37°C, OD600
[16] = isolate AB5, 24 h biofilm in TSB, then MH broth with drug 16–20 h 37°C, OD600
[17] = isolate AB6, 24 h biofilm in TSB, then MH broth with drug 16–20 h 37°C, OD600
[18] = isolate AB7, 24 h biofilm in TSB, then MH broth with drug 16–20 h 37°C, OD600
[19] = isolate AB8, 24 h biofilm in TSB, then MH broth with drug 16–20 h 37°C, OD600
[20] = isolate AB9, 24 h biofilm in TSB, then MH broth with drug 16–20 h 37°C, OD600
[21] = Acinetobacter baumannii, isolate AB1, planktonic, broth microdilution, CAMHB, 37°C 16–20 h, OD600, read-out: MIC
[22] = Acinetobacter baumannii, isolate AB2, planktonic, broth microdilution, CAMHB, 37°C 16–20 h, OD600, read-out: MIC
[23] = Acinetobacter baumannii, isolate AB3, planktonic, broth microdilution, CAMHB, 37°C 16–20 h, OD600, read-out: MIC
[24] = Acinetobacter baumannii, isolate AB4, planktonic, broth microdilution, CAMHB, 37°C 16–20 h, OD600, read-out: MIC
[25] = Acinetobacter baumannii, isolate AB5, planktonic, broth microdilution, CAMHB, 37°C 16–20 h, OD600, read-out: MIC
[26] = Acinetobacter baumannii, isolate AB6, planktonic, broth microdilution, CAMHB, 37°C 16–20 h, OD600, read-out: MIC
[27] = Acinetobacter baumannii, isolate AB7, planktonic, broth microdilution, CAMHB, 37°C 16–20 h, OD600, read-out: MIC
[28] = Acinetobacter baumannii, isolate AB8, planktonic, broth microdilution, CAMHB, 37°C 16–20 h, OD600, read-out: MIC
[29] = Acinetobacter baumannii, isolate AB9, planktonic, broth microdilution, CAMHB, 37°C 16–20 h, OD600, read-out: MIC

Row | Compound | MIC [1, 3] | MIC [1, 4] | MIC [1, 5] | MIC [1, 6] | MIC [1, 7] | MIC [1, 8] | MIC [1, 9] | MIC [1, 10] | MIC [1, 11] | MBIC [2, 12] | MBIC [2, 13] | MBIC [2, 14] | MBIC [2, 15] | MBIC [2, 16] | MBIC [2, 17] | MBIC [2, 18] | MBIC [2, 19] | MBIC [2, 20] | also measured
1 | CC[C@H](C)CCCCC(=O)N[C@@H](CCN)C(=O)N[C@H](C(=O)N[C@@H](CCN)C(=O)N[C@H]1CCNC(=O)[C@H]([C@@H](C)O)NC(=O)[C@H](CCN)NC(=O)[C@H](CCN)NC(=O)[C@H](CC(C)C)NC(=O)[C@@H](Cc2ccccc2)NC(=O)[C@H](CCN)NC1=O)[C@@H](C)O [Polymyxin B, polymyxin B] (X1-[Dab]T[Dab][Dab][Dab][dF]L[Dab][Dab]T; lactam 4-C (inferred); N-terminus assumed) | 2 µg/mL (≈ 1.66 µM) | 1 µg/mL (≈ 0.831 µM) | 1 µg/mL (≈ 0.831 µM) | 2 µg/mL (≈ 1.66 µM) | 2 µg/mL (≈ 1.66 µM) | 1 µg/mL (≈ 0.831 µM) | 2 µg/mL (≈ 1.66 µM) | 2 µg/mL (≈ 1.66 µM) | 2 µg/mL (≈ 1.66 µM) | 16 µg/mL | 16 µg/mL | 8 µg/mL | 8 µg/mL | 16 µg/mL | 16 µg/mL | 8 µg/mL | 8 µg/mL | 8 µg/mL | 
2 | CN[C@H](CC(C)C)C(=O)N[C@H]1C(=O)N[C@@H](CC(N)=O)C(=O)N[C@H]2C(=O)N[C@H]3C(=O)N[C@H](C(=O)N[C@H](C(=O)O)c4cc(O)cc(O)c4-c4cc3ccc4O)[C@H](O)c3ccc(c(Cl)c3)Oc3cc2cc(c3O[C@@H]2O[C@H](CO)[C@@H](O)[C@H](O)[C@H]2O[C@H]2C[C@](C)(N)[C@H](O)[C@H](C)O2)Oc2ccc(cc2Cl)[C@H]1O [Vancomycin, vancomycin] | 64 µg/mL (≈ 44.2 µM) | 64 µg/mL (≈ 44.2 µM) | 128 µg/mL (≈ 88.3 µM) | 64 µg/mL (≈ 44.2 µM) | 128 µg/mL (≈ 88.3 µM) | 128 µg/mL (≈ 88.3 µM) | 128 µg/mL (≈ 88.3 µM) | 64 µg/mL (≈ 44.2 µM) | 128 µg/mL (≈ 88.3 µM) | 256 µg/mL | 128 µg/mL | 128 µg/mL | 128 µg/mL | 256 µg/mL | 256 µg/mL | 128 µg/mL | 128 µg/mL | 128 µg/mL | 
3 | CC[C@H](C)[C@H](N)C1=N[C@H](C(=O)N[C@@H](CC(C)C)C(=O)N[C@H](CCC(=O)O)C(=O)N[C@H](C(=O)N[C@H]2CCCCNC(=O)[C@H](CC(N)=O)NC(=O)[C@@H](CC(=O)O)NC(=O)[C@H](Cc3cnc[nH]3)NC(=O)[C@@H](Cc3ccccc3)NC(=O)[C@H]([C@@H](C)CC)NC(=O)[C@@H](CCCN)NC2=O)[C@@H](C)CC)CS1 [Bacitracin, bacitracin] ({Ileψ(thiazoline)Cys}-L[dE]IK[dOrn]I[dF]H[dD]N; lactam 4-C (inferred); N-terminus assumed) |  |  | 128 µg/mL (≈ 90 µM) | 128 µg/mL (≈ 90 µM) | 128 µg/mL (≈ 90 µM) | 128 µg/mL (≈ 90 µM) |  | 128 µg/mL (≈ 90 µM) | 128 µg/mL (≈ 90 µM) |  |  |  |  |  |  |  |  |  | MIC [1]: 64 µg/mL (≈ 45 µM); MBIC ([2]; extensively drug-resistant clinical isolates (biofilm cell, 24 h)): 256 µg/mL
4 | teicoplanin | 64 µg/mL | 64 µg/mL | 32 µg/mL | 32 µg/mL | 64 µg/mL | 32 µg/mL | 128 µg/mL | 32 µg/mL | 64 µg/mL |  | 64 µg/mL | 64 µg/mL |  |  | 64 µg/mL |  |  | 64 µg/mL | 
5 | CNC(C)C1CCC(N)C(OC2C(N)CC(N)C(OC3OCC(C)(O)C(NC)C3O)C2O)O1 (stereo not drawn) [Gentamicin, gentamicin] | >1024 µg/mL | >1024 µg/mL | >1024 µg/mL | >1024 µg/mL | >1024 µg/mL | >1024 µg/mL | >1024 µg/mL | >1024 µg/mL |  |  |  |  |  |  |  |  |  |  | MIC ([1]; Acinetobacter baumannii): > 1020 µg/mL
6 | O=C(N[C@H](CO)[C@H](O)c1ccc([N+](=O)[O-])cc1)C(Cl)Cl [Chloramphenicol, chloramphenicol] |  |  |  |  |  |  |  |  |  |  |  |  |  |  |  |  |  |  | MIC [1, 21]: 32 µg/mL (≈ 99 µM); MIC [1, 22]: 32 µg/mL (≈ 99 µM); MIC [1, 23]: 32 µg/mL (≈ 99 µM); MIC [1, 24]: 32 µg/mL (≈ 99 µM); MIC [1, 25]: 32 µg/mL (≈ 99 µM); MIC [1, 26]: 32 µg/mL (≈ 99 µM); MIC [1, 27]: 32 µg/mL (≈ 99 µM); MIC [1, 28]: 32 µg/mL (≈ 99 µM); MIC [1, 29]: 32 µg/mL (≈ 99 µM)
7 | polymyxin E | 2 µg/mL | 1 µg/mL | 1 µg/mL | 2 µg/mL | 2 µg/mL | 1 µg/mL | 2 µg/mL | 2 µg/mL | 2 µg/mL | 16 µg/mL | 8 µg/mL | 4 µg/mL | 4 µg/mL | 8 µg/mL | 8 µg/mL | 8 µg/mL | 4 µg/mL | 8 µg/mL | 
8 | CCN1CCN(C(=O)N[C@@H](C(=O)N[C@@H]2C(=O)N3[C@@H]2SC(C)(C)[C@@H]3C(=O)O)c2ccccc2)C(=O)C1=O [Piperacillin, piperacillin] |  |  |  |  |  |  |  |  |  |  |  |  |  |  |  |  |  |  | MIC [1, 21]: > 1020 µg/mL; MIC [1, 22]: > 1020 µg/mL; MIC [1, 23]: > 1020 µg/mL; MIC [1, 24]: > 1020 µg/mL; MIC [1, 25]: > 1020 µg/mL; MIC [1, 26]: > 1020 µg/mL; MIC [1, 27]: > 1020 µg/mL; MIC [1, 28]: > 1020 µg/mL; MIC [1, 29]: > 1020 µg/mL
